The results in this text go back to patent US6384029B1, “Optically active pyridyl-4h-1,2,4-oxdadiazine derivative and its use in the treatment of vascular diseases” (Biorex Kutató Fejlesztö RT., priority 1998, dated 2002).

Assay [1] has as its system spontaneously hypertensive rats. The assay is described as follows: Myocardial infarction in spontaneously hypertensive rats (coronary occlusion/reperfusion). It is filed as in vivo, rat. The conditions noted are these: SH rats; for Survival (%) / Infarcted area (%): oral 6 hours before occlusion (100 mg/kg), 1 h occlusion, 1 h reperfusion; for Infarcted area (%): percentage of left ventricle. The procedure: Myocardial Infarction in Spontaneously Hypertensive Rats
Myocardial ischemia was induced by a temporary occlusion of the main left coronary artery, according to Griswold et al (J. Pharmacol. Methods 1988, 20: 225-235). SH rats were anaesthetized with sodium pentobarbital (60 mg/kg i.p.). After tracheotomy, the animals were ventilated with room air by a respirator for small rodents (model: Harvard 552), with a stroke volume of 1,5-2 ml/100 g and a rate of 55 strokes/min to maintain normal pO2, pCO2 and pH parameters. The right carotid artery was catheterized and connected to a pressure transducer (P236B Stetham) for the measurement of systemic arterial blood pressure (BP) by means of a preamplifier (Hg-O2D Experimetria®). Heart rate (HR) was measured by a cardiotachometer (HR-01, Experimetria®). The electrocardiogram (ECG standard lead III) was recorded on a devices recorder (ER- 14, Micromed®) by means of subcutaneous steel needle electrodes. The chest was opened by a left thoracotomy and the heart was exteriorized by a gentle pressure on the right side of the rib cage. A 4/0 silk ligature was quickly placed under the main left coronary artery. The heart was replaced in the chest and the animal left to recover. Rectal temperature was monitored and was maintained constant at 37° C. The experiment was initiated with a 15 min stabilization period during which the observation of a sustained blood pressure less than 70 mmHg and/or the occurrence of arrhythmias lead to exclusion. Myocardial ischemia was induced with coronary artery occlusion for 1 h and reperfusion allowed for 1 hour. The drugs were administered orally 6 hours before occlusion.
Quantification of Myocardial Infarction
At the end of experiment, the heart was quickly removed. The left ventricle was then sliced into 2 mm thick sections parallel to the atrioventricular groove. The slices were incubated in a 0.1% solution of p-Nitroblue Tetrazolium (NBT) grade III, pH 7,4 for 15 min. The non-infarcted area was colored blue due to formation of a precipitate that results from reaction of NBT with dehydrogenase enzymes. Loss of these enzymes in the infarcted myocardium prevents the formation of the precipitate; thus, the infarcted area within the risk region remains pale yellow. The necrotic area was determined using computerized image analysis (COLIM, Pictron Kft), and was expressed as a percentage of the left ventricle.

The subject of assay [2] is coronary flow responses to serotonin (5-HT) in hearts from spontaneously hypertensive (SH) rats. The assay is described as follows: Langendorff perfused rat heart: endothelial function before and after ischemia. The conditions noted are these: for postischemic coronary response in percentage of the preischemic vasodilator response: 10^−6 M drug in perfusate, 10^−7 M 5-HT, 10 min global ischemia, SH rat heart. The procedure:
Langendorff Perfused Rat Heart
Protocol for Assesment of Endothelial Function Before and After Ischemia
Rats were heparinised with i.p. heparin sodium (2500 IU) and anesthetized with i.p. pentobarbital (60 mg/kg). Hearts from spontaneously hypertensive (SH) rats were quickly removed and immediately perfused via the aorta using a gravity-flow, non-recirculating Langendorff apparatus (Experimetria Ltd) at a constant perfusion pressure (100 cm H2O) with Krebs-Henseleit Solution (KHS) containing in mM: NaCl 120; KCl 5.4; CaCl2 2.7; MgCl2 1.1; NaHCO3 24; D-glucose 11. The KHS was gassed with carbogen (95% O2; 5% CO2) resulting pH 7.4.
We used the so-called non-working heart model and measured the mean coronary flow by a transonic flow meter (Type T206, Transonic Systems Inc.). The flow probe was placed above the aortic cannula. Coronary flow was monitored throughout the experiment and registered by a potentiometric recorder. Hearts were allowed to beat spontaneously throughout the experiment. After 20-30 min of equilibration period the coronary flow reached a baseline value.
Endothelial function was assessed through observations of preischemic and postischemic coronary flow responses to serotonin (5-HT). In response to serotonin, the progress of dilatation of coronary artery depends on the soundness of the endothelium.
The Langendorff infusion was switched to the another column containing additional 10^−7 M serotonin (5-HT, Sigma Chemical Co.). The ensuing dilatation of coronary artery was monitored and when the steady state had been reached the 5-HT was washed out by switching back to the ordinary KHS. The heart was then subjected to a global ischemia for 10 min by the clamping the aortic cannula. At the end of the ischemic period, the heart was reperfused. When the baseline coronary flow had been reestablished, the heart was again subjected to the same protocol of sequential infusion of 5-HT and KHS as in the preischemic period. Control hearts were perfused with pure KHS and the hearts of the another three groups were perfused with KHS containing additional 10^−6 M racemic 5,6-dihydro-5-(1-piperidinyl)-methyl-3-(3-pyridyl)4H-1,2,4-oxadiazine, (−)-5,6-dihydro-5-(1-piperidinyl)-methyl-3-(3-pyridyl)4H-1,2,4-oxadiazine and (+)-5,6-dihydro-5-(1-piperidinyl)-methyl-3-(3-pyridyl)4H-1,2,4-oxadiazine, respectively. 20-30 min after the onset of hemodynamic stability, perfusion of the drugs were initiated and continued until reperfusion with the exception of the occlusion period.
The potischemic coronary responses are expressed in percentage of the preischemic vasodilator responses.

The subject of the next assay is rabbit papillary muscle. Kind of assay: Contractile force of heart: rabbit right ventricular papillary muscle. The conditions noted are these: for amplitude % (contractile force, % of control): cumulative addition, 15-20 min incubation; for inotropic effect (in words): between 10^−6 and 10^−4 molar range. From the text:
Effect of racemic 5,6-dihydro-5-(1-piperidinyl)-methyl-3-(3-pyridyl)4H-1,2,4-oxadiazine and its (−) and (+) enantiomers on the contractile force of heart
New Zealand white rabbits (male, 2-3 kg) were killed by a blow on the nape. The hearts were rapidly removed after opening the chest. Right ventricular papillary muscles were dissected and mounted in organ holding chambers and pre-tension of 0.5 g was applied. The superfusate contained (in mM) 120 NaCl, 5.4 KCl, 2.7 CaCl2, 1.1 MgCl2, 1.1 NaH2PO4, 24.0 NaHCO3 and 11.0 glucose. The pH of this superfusate was 7.4 at 37° C. when gassed with 95% O2 and 5% CO2. Stimulation and measurements were carried out by Isosys System of Experimetria, Budapest, Hungary. The preparations were paced by 1-ms-wide isolated constant voltage at a cycle length of 1000 ms. The amplitudes of the pulses were equal to twice as high as the diastolic threshold value, delivered through a pair of platinum electrodes. Before the start of the measurements the preparation was equilibrated for 60 min to allow the stabilization of its mechanical parameters. The drugs were added to the organ bath cumulatively, without washing out. Period of the incubation was 15-20 min. Measured parameters were: resting force (mg) and changes in the amplitude of contractile force (mg) which was expressed in % of the control.

[3] abbreviates: acute single oral 100 mg/kg 6 hours before occlusion.

Each structure is given as a SMILES string. Marks after values point to notes of the source that are not given here.

With `c1cncc(C2=NOCC(CN3CCCCC3)N2)c1` (single isomer, unassigned; (-)) [(−) enantiomer, (−)-5,6-dihydro-5-(1-piperidinyl)-methyl-3-(3-pyridyl)4H-1,2,4-oxadiazine], in assay [1] (setting [3]), the “myocardial infarct size (in words)” value is recorded as “significantly reduced myocardial infarct size” and the “survival rate (in words)” value is “increased survival rate”. Also, in assay [1], the “Survival (%)” value is reported as 100.0** % and the “Infarcted area (%)” value was 7.1 ± 2.5 %. Further, the “postischemic coronary response in percentage of the preischemic vasodilator response” value in assay [2] is recorded as 88.41 ± 10.9%. Further, the “endothelial function after ischemia (in words)” value in assay [2] (10^−6 M, 10 min of global ischemia) was “preserved endothelial function”. For the same compound, in the assay with rabbit papillary muscle (10^−4 M), the “amplitude % (contractile force, % of control)” value (“amplitude %” for short) turned out to be 142.5 ± 4.8 %. Further, the “amplitude %” value with rabbit papillary muscle (10^−5 M) came out at 132.8 ± 5.0 %. Moreover, the “amplitude %” value with rabbit papillary muscle (10^−6 M) stood at 126.6 ± 5.3 %. The “inotropic effect (in words)” value in the assay with rabbit papillary muscle is “positive inotropic effect”.
As to `c1cncc(C2=NOCC(CN3CCCCC3)N2)c1` (racemic) [racemic compound, 5,6-dihydro-5-(1-piperidinyl)-methyl-3-(3-pyridyl)4H-1,2,4-oxadiazine, reference compound], the “Survival (%)” value in assay [1] amounted to 70.0%. For the same compound, the “Infarcted area (%)” value in assay [1] is given as 27.2 ± 5.8 %. Also, the “postischemic coronary response in percentage of the preischemic vasodilator response” value in assay [2] is recorded as 63.08 ± 11.7%. The “amplitude %” value with rabbit papillary muscle (10^−4 M) is on record as 83.7 ± 3.3 %; with rabbit papillary muscle (10^−5 M) it was 87.1 ± 3.5 %; in the assay with rabbit papillary muscle (10^−6 M), 92.6 ± 5.08%. The “inotropic effect (in words)” value in the assay on rabbit papillary muscle is listed as “negative inotropic effect”.
On to `c1cncc(C2=NOCC(CN3CCCCC3)N2)c1` (single isomer, unassigned; (+)) [(+) enantiomer, (+)-5,6-dihydro-5-(1-piperidinyl)-methyl-3-(3-pyridyl)4H-1,2,4-oxadiazine], for which the “Survival (%)” value in assay [1] is listed as 75.0%. The “Infarcted area (%)” value in assay [1] is 34.5 ± 4.6%. For the same compound, the “postischemic coronary response in percentage of the preischemic vasodilator response” value in assay [2] is on record as 49.78 ± 9.9%. In addition, the entries for the “amplitude %” value in the assay with rabbit papillary muscle (10^−4 M), with rabbit papillary muscle (10^−5 M) and with rabbit papillary muscle (10^−6 M) were 78.4 ± 5.0 %, 79.5 ± 5.6 % and 90.1 ± 3.5%, respectively. Moreover, the “inotropic effect (in words)” value in the assay on rabbit papillary muscle is listed as “negative inotropic effect”.
